Test results taken from PubChem BioAssay AID248 (DTP/NCI, 2004).
Values joined by “and” are separate entries in the source; they are usually repeats but may differ in a detail not shown here. Identical values can stand only once. Toxic doses and inconclusive results are not listed. Cut-off read from the data, not from the text of the source: active = T/C of 150% or more; inactive = T/C below 125%.

System: L1210 leukemia ip in BDF1 mice, survival T/C
Test: NCI In Vivo Anticancer Drug Screen. Data for tumor model L1210 Leukemia (intraperitoneal) in B6D2F1 (BDF1) mice
Settings: endpoint: mean survival time, higher = longer survival
How it was run: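 Tumor was transplanted into mice, which were then dosed with test compound or vehicle alone. Survival was recorded for each group, and the treated figure was expressed relative to the control figure.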

[1] = dose: 100.0 mg/kg/injection, schedule: Q01DX009 (ip), vehicle: Klucel (hydroxypropylcellulose) (HPC)
[2] = dose: 200.0 mg/kg/injection, schedule: Q01DX009 (ip), vehicle: Klucel (hydroxypropylcellulose) (HPC)
[3] = dose: 100.0 mg/kg/injection, schedule: Q04DX003 (ip), vehicle: saline with Tween-80
[4] = dose: 200.0 mg/kg/injection, schedule: Q04DX003 (ip), vehicle: saline with Tween-80
[5] = dose: 400.0 mg/kg/injection, schedule: Q04DX003 (ip), vehicle: saline with Tween-80
[6] = dose: 100.0 mg/kg/injection, schedule: Q04DX003 (ip), vehicle: saline
[7] = dose: 200.0 mg/kg/injection, schedule: Q04DX003 (ip), vehicle: saline
[8] = dose: 400.0 mg/kg/injection, schedule: Q04DX003 (ip), vehicle: saline
[9] = dose: 100.0 mg/kg/injection, schedule: Q01DX001 (ip), vehicle: saline
[10] = dose: 200.0 mg/kg/injection, schedule: Q01DX001 (ip), vehicle: saline
[11] = dose: 400.0 mg/kg/injection, schedule: Q01DX001 (ip), vehicle: saline
[12] = dose: 100.0 mg/kg/injection, schedule: Q04DX003 (ip), vehicle: Klucel (hydroxypropylcellulose) (HPC)
[13] = dose: 200.0 mg/kg/injection, schedule: Q01DX009 (ip), vehicle: saline with Tween-80

Measured: T/C

Cc1c(Cl)cccc1NC(=O)Nc1ccccc1
inactive: dose: 25.0 mg/kg/injection, schedule: Q01DX009 (ip), vehicle: DMSO 95 % of control | dose: 50.0 mg/kg/injection, schedule: Q01DX009 (ip), vehicle: DMSO 95 % of control | dose: 100.0 mg/kg/injection, schedule: Q01DX009 (ip), vehicle: DMSO 88 % of control | dose: 100.0 mg/kg/injection, schedule: Q04DX003 (sc), vehicle: olive oil, sesame oil, peanut oil 95 % of control | dose: 200.0 mg/kg/injection, schedule: Q04DX003 (sc), vehicle: olive oil, sesame oil, peanut oil 99 % of control | dose: 400.0 mg/kg/injection, schedule: Q04DX003 (sc), vehicle: olive oil, sesame oil, peanut oil 114 % of control

Nc1ccc(C(=O)O)c(O)c1.Nc1ccc(C(=O)O)c(O)c1.[Na+].[O]=[V]
inactive: dose: 2.0 mg/kg/injection, schedule: Q01DX015 (ip), vehicle: carboxymethylcellulose (CMC) 98 % of control | dose: 4.0 mg/kg/injection, schedule: Q01DX015 (ip), vehicle: carboxymethylcellulose (CMC) 93 % of control | dose: 8.0 mg/kg/injection, schedule: Q01DX015 (ip), vehicle: carboxymethylcellulose (CMC) 100 % of control | dose: 16.0 mg/kg/injection, schedule: Q01DX015 (ip), vehicle: carboxymethylcellulose (CMC) 110 % of control and 113 % of control | dose: 32.0 mg/kg/injection, schedule: Q01DX015 (ip), vehicle: carboxymethylcellulose (CMC) 101 % of control

O=C(NCCc1ccccc1)Nc1ccccc1Cl
inactive: dose: 100.0 mg/kg/injection, schedule: Q01DX009 (ip), vehicle: gum acacia 96 % of control | dose: 100.0 mg/kg/injection, schedule: Q04DX003 (ip), vehicle: gum acacia 92 % of control | dose: 200.0 mg/kg/injection, schedule: Q01DX009 (ip), vehicle: gum acacia 115 % of control | dose: 200.0 mg/kg/injection, schedule: Q04DX003 (ip), vehicle: gum acacia 92 % of control | dose: 400.0 mg/kg/injection, schedule: Q01DX009 (ip), vehicle: gum acacia 100 % of control | dose: 400.0 mg/kg/injection, schedule: Q04DX003 (ip), vehicle: gum acacia 97 % of control

C=CCNC(=S)N(C)Cc1ccccc1Cl
inactive: [1] 90 % of control | [2] 98 % of control

c1ccc(SCc2ncc3cnccn23)cc1
inactive: [3] 97 % of control | [4] 94 % of control | [5] 103 % of control

CCOC1(OCC)CS(=O)(=O)C1
inactive: dose: 25.0 mg/kg/injection, schedule: Q01DX009 (ip), vehicle: saline sonified 100 % of control | dose: 50.0 mg/kg/injection, schedule: Q01DX009 (ip), vehicle: saline sonified 95 % of control | dose: 100.0 mg/kg/injection, schedule: Q01DX009 (ip), vehicle: saline sonified 106 % of control | [6] 109 % of control | [7] 117 % of control | [8] 112 % of control

CCCCNCCO
inactive: dose: 25.0 mg/kg/injection, schedule: Q01DX009 (ip), vehicle: saline 96 % of control | dose: 50.0 mg/kg/injection, schedule: Q01DX009 (ip), vehicle: saline 100 % of control | dose: 100.0 mg/kg/injection, schedule: Q01DX009 (ip), vehicle: saline 115 % of control

O=C(c1ccc(F)cc1)c1ccc([N+](=O)[O-])cc1
inactive: [3] 97 % of control | [4] 97 % of control | [5] 98 % of control

COc1cc(/C=N\Nc2ccccc2[N+](=O)[O-])cc(OC)c1OC
inactive: [3] 86 % of control | [4] 91 % of control | [5] 89 % of control

CCOC(=O)CC/C(C)=N\N(C)C
inactive: [6] 93 % of control | [7] 97 % of control | [8] 93 % of control

CC(N)C(=O)NC1C(CO)OC(n2cnc3c(N)ncnc32)C1O (stereo unspecified)
inactive: [9] 105 % of control | [10] 101 % of control | [11] 101 % of control

CN(C)c1ccc(CN2CCCN(Cc3ccc(N(C)C)cc3)C2c2ccccc2O)cc1
inactive: dose: 100.0 mg/kg/injection, schedule: Q01DX009 (ip), vehicle: saline with Tween-80 100 % of control | [12] 97 % of control | [13] 107 % of control | dose: 200.0 mg/kg/injection, schedule: Q04DX003 (ip), vehicle: Klucel (hydroxypropylcellulose) (HPC) 100 % of control | dose: 400.0 mg/kg/injection, schedule: Q01DX009 (ip), vehicle: saline with Tween-80 106 % of control | dose: 400.0 mg/kg/injection, schedule: Q04DX003 (ip), vehicle: Klucel (hydroxypropylcellulose) (HPC) 97 % of control

CCCCCCCCS(=O)(=O)CCO
inactive: dose: 100.0 mg/kg/injection, schedule: Q01DX009 (ip), vehicle: carboxymethylcellulose (CMC) 93 % of control | dose: 100.0 mg/kg/injection, schedule: Q04DX003 (ip), vehicle: carboxymethylcellulose (CMC) 106 % of control | dose: 200.0 mg/kg/injection, schedule: Q01DX009 (ip), vehicle: carboxymethylcellulose (CMC) 90 % of control | dose: 200.0 mg/kg/injection, schedule: Q04DX003 (ip), vehicle: carboxymethylcellulose (CMC) 101 % of control | dose: 400.0 mg/kg/injection, schedule: Q01DX009 (ip), vehicle: carboxymethylcellulose (CMC) 95 % of control | dose: 400.0 mg/kg/injection, schedule: Q04DX003 (ip), vehicle: carboxymethylcellulose (CMC) 106 % of control

O=C(O)c1cc(Br)ccc1Br
inactive: dose: 100.0 mg/kg/injection, schedule: Q04DX002 (ip), vehicle: saline with Tween-80 102 % of control | dose: 200.0 mg/kg/injection, schedule: Q04DX002 (ip), vehicle: saline with Tween-80 110 % of control | dose: 400.0 mg/kg/injection, schedule: Q04DX002 (ip), vehicle: saline with Tween-80 105 % of control

CC1=C2/C=c3\[nH]/c(c(CCC(=O)NCCN)c3C)=C\c3[nH]c(c(C)c3CCC(=O)NCCN)CC3NC(CC(=N2)C1=NCCN)C(C)=C3NCCN (stereo unspecified)
inactive: dose: 37.5 mg/kg/injection, schedule: Q01DX001 (ip), vehicle: saline 97 % of control | dose: 75.0 mg/kg/injection, schedule: Q01DX001 (ip), vehicle: saline 97 % of control and 111 % of control | dose: 150.0 mg/kg/injection, schedule: Q01DX001 (ip), vehicle: saline 106 % of control and 120 % of control | dose: 300.0 mg/kg/injection, schedule: Q01DX001 (ip), vehicle: saline 102 % of control

CCC(=O)Nc1cccc(OC(=O)NC(C)(C)C)c1
inactive: [3] 90 % of control | [4] 90 % of control | [5] 89 % of control

CCOC(=O)c1cc(Cl)cc(Cl)c1N=NN(C)C
inactive: dose: 50.0 mg/kg/injection, schedule: Q01DX009 (ip), vehicle: saline with Tween-80 102 % of control | [13] 102 % of control

CC(=O)Nc1ccc2c(c1)/C(=N/O)c1ccccc1-2
inactive: [6] 97 % of control | [7] 89 % of control | [8] 94 % of control

CCOC(=O)CNC(=O)Nc1cccc(Cl)c1Cl
inactive: [1] 102 % of control | [2] 98 % of control | dose: 400.0 mg/kg/injection, schedule: Q01DX009 (ip), vehicle: Klucel (hydroxypropylcellulose) (HPC) 98 % of control

CC(=O)N/N=C(/C)C1CC2CCC1C2 (stereo unspecified)
inactive: [9] 104 % of control | [10] 106 % of control | [11] 112 % of control

O=C(NCCCl)NC1CCC(C(=O)O)CC1 (stereo unspecified)
inactive: dose: 100.0 mg/kg/injection, schedule: Q01DX001 (ip), vehicle: saline with Tween-80 97 % of control | dose: 200.0 mg/kg/injection, schedule: Q01DX001 (ip), vehicle: saline with Tween-80 100 % of control | dose: 400.0 mg/kg/injection, schedule: Q01DX001 (ip), vehicle: saline with Tween-80 94 % of control

COC1=C(Nc2ccccc2C)C(=O)C(OC)=C(Nc2ccccc2C)C1=O
inactive: dose: 50.0 mg/kg/injection, schedule: Q01DX001 (ip), vehicle: carboxymethylcellulose (CMC) 87 % of control | dose: 100.0 mg/kg/injection, schedule: Q01DX001 (ip), vehicle: carboxymethylcellulose (CMC) 96 % of control | dose: 200.0 mg/kg/injection, schedule: Q01DX001 (ip), vehicle: carboxymethylcellulose (CMC) 98 % of control | dose: 400.0 mg/kg/injection, schedule: Q01DX001 (ip), vehicle: carboxymethylcellulose (CMC) 96 % of control

CN(CC(O)COc1ccccc1)CC1CCCO1 (stereo unspecified)
inactive: dose: 25.0 mg/kg/injection, schedule: Q04DX003 (ip), vehicle: Klucel (hydroxypropylcellulose) (HPC) 98 % of control | dose: 50.0 mg/kg/injection, schedule: Q04DX003 (ip), vehicle: Klucel (hydroxypropylcellulose) (HPC) 97 % of control | [12] 95 % of control and 98 % of control
